The text below walks through data of US20070004039A1, “Immortalized hepatocytes” (Multicell Technologies, Inc., priority 2003, published 2007).

In data set [1] the test system is Fa2N-4 cells and primary human hepatocytes.
In a further data set the test system is MDR1 (P-glycoprotein). Kind of data set: Invader assay MDR1 mRNA induction in Fa2N-4 cells. In kind it is cell-based, human. Conditions: 48 hours.
In another data set the test system is CYP2B6. Conditions: cited from earlier work.
The subject of the next data set is Fa2N-4 cells. Kind of data set: α-GST release toxicity test in Fa2N-4 cells (FIG. 22). Conditions: 72-hour exposure, up to 100 μM.
For data set [2], the system named is Fa2N-4 cells and primary human hepatocytes. As to the kind of experiment: Toxicity by LDH release and resazurin reduction, Fa2N-4 cells compared with primary human hepatocytes. Conditions: Same or Different toxicity response in the two cell types.
Data set [3] concerns CYP3A4. The settings on record: human.
Data set [4] has as its system CYP3A4. Conditions: human. This is another data set of the same source.
Data set [5] relates to CYP1A2. Kind of data set: CYP1A2 activity induction in Fa2N-4 cells (phenacetin, LC/MS/MS). In kind it is cell-based, human.
A further data set concerns albumin. Kind of data set: Effect of dexamethasone on albumin secretion by Fa2N-4 cells (ELISA). In kind it is cell-based, human. The settings on record: Fa2N-4 (passage 32); dexamethasone 1.0 μM; 48 hrs.
For data set [6], the system named is CYP1A2. The settings on record: cited from earlier work.
The subject of data set [7] is CYP1A2.
Another data set concerns UGT1A. As to the kind of experiment: Invader assay UGT1A mRNA induction in Fa2N-4 cells. In kind it is cell-based, human. Conditions: 48 hours.
Data set [8] deals with CYP3A4.
Where [9] appears, read: activity based on 7-ethoxy-4-trifluoromethylcoumarin O-dealkylation.
Setting [10] is: activity based on S-mephenytoin N-demethylation.

The structures appear in SMILES notation. Read-outs that look alike come from different tables or passages of the source.

As to `NC(=O)N1c2ccccc2C=Cc2ccccc21` [Carbamazepine], in data set [1], the “Cellular Response (Fa2N-4 cells compared with primary human hepatocytes)” value is “Same” and the “Non-toxic Compound / Toxic Compound” value was “Carbamazepine”.

`CO[C@H]1/C=C/O[C@@]2(C)Oc3c(C)c(O)c4c(O)c(c(/C=N/N5CCN(C)CC5)c(O)c4c3C2=O)NC(=O)/C(C)=C\C=C\[C@H](C)[C@H](O)[C@@H](C)[C@@H](O)[C@@H](C)[C@H](OC(C)=O)[C@@H]1C` [Rifampin]: the “MDR1 (P-glycoprotein) mRNA induction” value in the data set on MDR1 (P-glycoprotein) came to 3 fold. For the same molecule, in the data set on CYP2B6 (setting [9]), the “Human hepatocytes Average induction, CYP2B6” value is 4.1 fold; the “Human hepatocytes Median induction, CYP2B6” value was 2.9 fold; the “Human hepatocytes induction (range), CYP2B6” value is not above 14 fold. Also, in the data set on CYP2B6 (setting [10]), the “Human hepatocytes Average induction, CYP2B6” value was 13 fold; the “Human hepatocytes Median induction, CYP2B6” value is on record as 8.5 fold; the “Human hepatocytes induction (range), CYP2B6” value is recorded as not above 71 fold. For the same molecule, in data set [1], the “Cellular Response (Fa2N-4 cells compared with primary human hepatocytes)” value is “Same”.

For the molecule `CC1=CC(=O)c2ccccc2C1=O` [Menadione], in [1], the “Cellular Response (Fa2N-4 cells compared with primary human hepatocytes)” value was “Different”, the “Non-toxic Compound / Toxic Compound” value is given as “Toxic” and the “sensitivity of Fa2N-4 cells relative to primary hepatocytes” value is “less sensitive”.

In the case of `Cc1ccc2cc3c(ccc4ccccc43)c3c2c1CC3` [3-Methylcholanthrene], the “release of α-GST into the medium” value with Fa2N-4 cells is reported as “caused a loss of membrane integrity”. Further, the “Cellular Response (Fa2N-4 cells compared with primary human hepatocytes)” value in data set [2] is on record as “Same”.

For `CCC1(c2ccccc2)C(=O)NC(=O)NC1=O` [Phenobarbital], the “production of the 6-β testosterone metabolite” value in the data set with CYP3A4 [3] was “weaker CYP3A4 inducers”. For the same molecule, the “Cellular Response (Fa2N-4 cells compared with primary human hepatocytes)” value in [2] is reported as “Same”.

With `Clc1ccccc1C(c1ccccc1)(c1ccccc1)n1ccnc1` [clotrimazole], the “CYP3A4 activity induction (FIG. 20)” value in the data set with CYP3A4 [4] was “CYP3A4 induction is masked by its inhibitory effect”.

Take `c1ccc2c(c1)cc1ccc3cccc4ccc2c1c34` [Benzo[a]pyrene]: in data set [1], the “Cellular Response (Fa2N-4 cells compared with primary human hepatocytes)” value was “Different”, the “Non-toxic Compound / Toxic Compound” value is “Toxic” and the “sensitivity of Fa2N-4 cells relative to primary hepatocytes” value is recorded as “more sensitive than primary hepatocytes”.

Turning to `CN(Cc1cnc2nc(N)nc(N)c2n1)c1ccc(C(=O)N[C@@H](CCC(=O)O)C(=O)O)cc1` [Methotrexate], in data set [1], the “Cellular Response (Fa2N-4 cells compared with primary human hepatocytes)” value is given as “Same” and the “Non-toxic Compound / Toxic Compound” value was “Methotrexate”.

As for `C=C(C)[C@H]1Cc2c(ccc3c2O[C@@H]2COc4cc(OC)c(OC)cc4[C@@H]2C3=O)O1` [Rotenone], the “Cellular Response (Fa2N-4 cells compared with primary human hepatocytes)” value in data set [2] was “Same”.

For the molecule `CO[C@H]1C[C@H](O[C@H]2[C@H](C)[C@@H](O[C@@H]3O[C@H](C)C[C@H](N(C)C)[C@H]3OC(C)=O)[C@@H](C)C[C@@]3(CO3)C(=O)[C@H](C)[C@@H](OC(C)=O)[C@@H](C)[C@@H](C)OC(=O)[C@@H]2C)O[C@@H](C)[C@@H]1OC(C)=O` [Troleandomycin], in data set [1], the “Cellular Response (Fa2N-4 cells compared with primary human hepatocytes)” value is given as “Same” and the “Non-toxic Compound / Toxic Compound” value is recorded as “Troleandomycin”.

`COc1ccc2[nH]c([S+]([O-])Cc3ncc(C)c(OC)c3C)nc2c1` (stereo not shown) [Omeprazole]: the “induction of CYP1A2 activity” value in the data set on CYP1A2 [5] (Fa2N-4, 6-well plates, 100 μM omeprazole) was “marked induction”. Also, the “CYP1A2 activity induction over control” value in the data set with CYP1A2 [5] (Fa2N-4, 6-, 12-, 24- and 96-well format, all cases) is reported as “at least 9 fold”. In addition, in the data set with CYP1A2 [5] (Fa2N-4 cells), the “Fa2N-4 Average induction, CYP1A2” value amounted to 20 fold and the “Fa2N-4 induction (range), CYP1A2” value is reported as “(9.3-29) fold”. Moreover, in [1], the “Cellular Response (Fa2N-4 cells compared with primary human hepatocytes)” value is reported as “Same” and the “Non-toxic Compound / Toxic Compound” value is reported as “Omeprazole”.

Turning to `C[C@@H]1C[C@H]2[C@@H]3CCC4=CC(=O)C=C[C@]4(C)[C@@]3(F)[C@@H](O)C[C@]2(C)[C@@]1(O)C(=O)CO` [Dexamethasone], in the data set with albumin, the Albumin was 100.0 µg/mL.

As to `Cc1c(C)c2c(c(C)c1O)CCC(C)(COc1ccc(CC3SC(=O)NC3=O)cc1)O2` (stereo not shown) [Troglitazone], in [1], the “Cellular Response (Fa2N-4 cells compared with primary human hepatocytes)” value was “Different”, the “Non-toxic Compound / Toxic Compound” value is given as “Toxic” and the “sensitivity of Fa2N-4 cells relative to primary hepatocytes” value is “more sensitive than primary hepatocytes”.

On to `CCCN(CCC)S(=O)(=O)c1ccc(C(=O)O)cc1` [Probenicid], for which, in data set [1], the “Cellular Response (Fa2N-4 cells compared with primary human hepatocytes)” value is “Same” and the “Non-toxic Compound / Toxic Compound” value is given as “Probenicid”.

On to `O=c1cc(-c2ccccc2)oc2ccc3ccccc3c12` [BNF, β-naphthoflavone], for which, in the data set with CYP1A2 [6], the “Human hepatocytes Average induction, CYP1A2” value was 13 fold; the “Human hepatocytes Median induction, CYP1A2” value is on record as 8.4 fold; the “Human hepatocytes induction (range), CYP1A2” value was “(2-56) fold”. Also, the “Primary cells Fold-increase, CYP1A2” value in the data set with CYP1A2 [6] (hepatocytes) is 13 fold. For the same molecule, the “Fa2N-4 cells Fold-increase, CYP1A2” value in the data set with CYP1A2 [7] was 1.5 fold. The “UGT1A mRNA induction” value in the data set with UGT1A amounted to 2 fold. Besides, in the data set on CYP3A4 [8], the “expression of CYP3A4 protein (immunoblot)” value was “does not induce CYP3A4 protein expression”.

`NC(=O)OCC(COC(N)=O)c1ccccc1` [Felbamate]: in [1], the “Cellular Response (Fa2N-4 cells compared with primary human hepatocytes)” value was “Same” and the “Non-toxic Compound / Toxic Compound” value is on record as “Felbamate”.

Consider `CC1(COc2ccc(CC3SC(=O)NC3=O)cc2)CCCCC1` (stereo not shown) [Ciglitazone], for which, in [1], the “Cellular Response (Fa2N-4 cells compared with primary human hepatocytes)” value is recorded as “Same” and the “Non-toxic Compound / Toxic Compound” value is listed as “Ciglitazone”.

On to `O=C1NC(=O)C(c2ccccc2)(c2ccccc2)N1` [Phenytoin], for which, in [1], the “Cellular Response (Fa2N-4 cells compared with primary human hepatocytes)” value is “Same” and the “Non-toxic Compound / Toxic Compound” value was “Phenytoin”.

Consider `Cc1c(OCC(F)(F)F)ccnc1C[S+]([O-])c1nc2ccccc2[nH]1` (stereo not shown) [Lansoprazole], for which, in data set [1], the “Cellular Response (Fa2N-4 cells compared with primary human hepatocytes)” value is recorded as “Same” and the “Non-toxic Compound / Toxic Compound” value is given as “Lansoprazole”.

In the case of `O=C1Nc2ccc(Cl)cc2[C@@](C#CC2CC2)(C(F)(F)F)O1` [Efavirenz], in [1], the “Cellular Response (Fa2N-4 cells compared with primary human hepatocytes)” value is reported as “Same” and the “Non-toxic Compound / Toxic Compound” value is listed as “Efavirenz”.
